From ChEMBL document CHEMBL1201862, “PubChem BioAssay data set” (2004) come the findings set out here.

Assay in all cases: DTP human tumour cell line panel, 48 h
Test [1] concerns UO-31.
Test [2] relates to SNB-75.
Test [3] has as its system SF-268.
Test [4] has as its system HCC 2998.
Test [5] has as its system SF-295.
The test system of test [6] is SN12C.
Test [7] has as its system NCI-H23.
For test [8], the system named is UACC-257.
Test [9] deals with SK-MEL-28.
The subject of test [10] is KM-20L2.
Test [11] relates to M14.
The test system of test [12] is ACHN.
Test [13] has as its system KM12.
Test [14] has as its system NCI-H226.
For test [15], the system named is SF-539.
For test [16], the system named is OVCAR-3.
For test [17], the system named is SR.
Test [18] relates to DU-145.
In test [19] the test system is MCF7.
For test [20], the system named is MDA-MB-435.

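A five-concentration, 48-hour dose response in 96-well plates underlies each endpoint, interpolated linearly between surrounding concentrations. The concentration for 50% growth inhibition is given as GI50.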 Active and inactive are the calls of the source. Cut-off read from the data, not from the text of the source: active = GI50 up to about 1.1 µM and inactive = higher.

With `CC1=C(C(=O)Nc2c(C)cccc2C)C(c2ccccc2Cl)C(C(=O)Nc2c(C)cccc2C)=C(C)N1`, the GI50 is > 100 µM (inactive) in test [1]; 94.8 µM (inactive) in test [2]; > 100 µM (inactive) in test [3]; > 100 µM (inactive) in test [4]; > 100 µM (inactive) in test [5]; > 100 µM (inactive) in test [6]. For the same molecule, the GI50 in [7], in [8], in [9], in [10], in test [11] and in test [12] was > 100 µM (inactive) each time. For the same molecule, the GI50 in [13], in test [14], in test [15] and in test [16] was > 100 µM (inactive) each time.

As to `CC12CCCCC1(C)C2Sc1ccccc1` (configuration not stated), the GI50 was 57.9 µM (inactive) in test [1]; 70.8 µM (inactive) in test [2]; 42.3 µM (inactive) in [3]; 31.4 µM (inactive) in test [4]; 35.6 µM (inactive) in [5]; 64.3 µM (inactive) in test [6]. Further, the GI50 in test [7] is 52.6 µM (inactive); in [8], 39.1 µM (inactive); in test [9] it was 40.5 µM (inactive); in [10], > 100 µM (inactive); in test [11] it was 88.5 µM (inactive); in test [12], 46.2 µM (inactive). Further, the GI50 is 49.3 µM (inactive) in test [13], 54.3 µM (inactive) in test [14], > 100 µM (inactive) in test [15] and 27.9 µM (inactive) in [16].

For the molecule `O=C(O)/C(=C/c1c(O)ccc2ccccc12)c1csc(-c2nc(/C(=C\c3c(O)ccc4ccccc34)C(=O)O)cs2)n1`, the GI50 in test [1] is 1.53 µM (inactive); in [2] it was 11 µM (inactive); in test [3], 10 µM (inactive); in [4] it was 17.4 µM (inactive); in test [5], 11.2 µM (inactive); in test [7], 9.55 µM (inactive). Also, the GI50 in test [8] is 14.9 µM (inactive); in test [9], 14.4 µM (inactive); in test [10] it was 19.4 µM (inactive); in [11], 11.7 µM (inactive); in [12], 4.83 µM (inactive); in [13] it was 19.8 µM (inactive). Moreover, the GI50 is 2.49 µM (inactive) in test [14], 6.17 µM (inactive) in [15] and 13.3 µM (inactive) in test [16].

For the molecule `COc1ccc2[nH]c(=O)cc(C)c2c1[N+](=O)[O-]`, the GI50 is 18.3 µM (inactive) in [1]; 10.5 µM (inactive) in [2]; 82 µM (inactive) in test [3]; > 100 µM (inactive) in test [4]; > 100 µM (inactive) in [5]; > 100 µM (inactive) in test [6]. Moreover, the GI50 in test [7], in [8], in test [9], in test [10], in test [11] and in test [12] was > 100 µM (inactive) each time. Also, the GI50 in test [13], in [14], in [15] and in test [16] was > 100 µM (inactive) in each case.

Turning to `CCN(CC)CCCCC1CCN(CC(=O)N2c3cc(Cl)ccc3NC(=O)CC2C)CC1` (configuration not stated), the GI50 was > 100 µM (inactive) in test [1]; > 100 µM (inactive) in test [3]; > 100 µM (inactive) in [4]; > 100 µM (inactive) in [5]; > 100 µM (inactive) in test [6]; 74 µM (inactive) in test [17]. The GI50 in test [7] was > 100 µM (inactive); in test [8] it was > 100 µM (inactive); in [9], > 100 µM (inactive); in [10], 40.9 µM (inactive); in test [11], > 100 µM (inactive); in test [12], > 100 µM (inactive). Besides, the GI50 in test [14] and in [16] was > 100 µM (inactive) throughout.

Turning to `NC1=NN(c2ccccc2)C(=O)C1C(=O)C(=O)Nc1ccccc1` (configuration not stated), the GI50 in test [1], in test [3], in test [4], in test [5], in test [6] and in test [7] was > 100 µM (inactive) in each case. Besides, the GI50 in test [8], in [10], in [11], in test [12], in [13] and in [14] was > 100 µM (inactive) throughout. Moreover, the GI50 in test [15] and in [16] was > 100 µM (inactive) each time.

Turning to `CCCCNC(=O)C1C(=O)N(CCCC)C(=O)/C1=N\N` (configuration not stated), the GI50 in [1], in test [2], in [3], in test [4], in test [5] and in test [6] was > 100 µM (inactive) each time. Also, the GI50 in test [7], in test [8], in test [9], in [10], in [11] and in test [12] was > 100 µM (inactive) each time. For the same molecule, the GI50 in test [13], in test [14], in test [15] and in test [16] was > 100 µM (inactive) each time.

Take `O=C(Nc1ccc2[nH]c(C(=O)N3CC(CCl)c4c3cc([N+](=O)[O-])c3ccccc43)cc2c1)c1cc2ccccc2o1` (configuration not stated): the GI50 in test [1] is > 100 µM (inactive); in [2] it was > 56.6 µM (inactive); in test [3] it was > 100 µM (inactive); in [4], > 46.9 µM (inactive); in [5], 395 µM (inactive); in [18] it was > 51.6 µM (inactive). Also, the GI50 in test [6] was > 100 µM (inactive); in test [17], 95.9 µM (inactive); in test [19] it was 23 µM (inactive); in test [7], > 55.7 µM (inactive); in test [20], > 100 µM (inactive); in test [8] it was > 100 µM (inactive). In addition, the GI50 in test [9] is > 58.1 µM (inactive); in [11], > 100 µM (inactive); in [12], 44.8 µM (inactive); in test [13], > 100 µM (inactive); in [14], 48.9 µM (inactive); in [15] it was > 1100 µM (inactive). Further, the GI50 in test [16] was > 100 µM (inactive).

`O=C1C=CC(=O)c2ncccc21`: the GI50 in test [1] was 4.43 µM (inactive); in test [2] it was 5.36 µM (inactive); in [3] it was 10.9 µM (inactive); in test [4], 7.26 µM (inactive); in test [5] it was 7.6 µM (inactive); in test [18], 7.8 µM (inactive). The GI50 in [6] was 5.14 µM (inactive); in test [17], 0.597 µM (active); in [19], 4.42 µM (inactive); in test [7] it was 10.3 µM (inactive); in test [20], 5.7 µM (inactive); in test [8], 5.05 µM (inactive). Also, the GI50 in test [9] was 3.46 µM (inactive); in test [11] it was 3.68 µM (inactive); in test [12], 2.63 µM (inactive); in test [13], 12.1 µM (inactive); in test [14], 12.1 µM (inactive); in test [15], 7.98 µM (inactive). In addition, in test [16], the GI50 is 1.3 µM (inactive).

`CCOC(=O)C(C(=O)OCC)=C1NC2(c3ccccc3Nc3ccccc32)C(C#N)S1` (configuration not stated): the GI50 in test [1] was 12.7 µM (inactive); in test [2] it was 16.2 µM (inactive); in test [3], 13.5 µM (inactive); in [4] it was 4.42 µM (inactive); in test [5], 11.1 µM (inactive); in test [18], 12 µM (inactive). The GI50 in test [6] is 5.6 µM (inactive); in [17] it was 2.81 µM (inactive); in test [19] it was 3.39 µM (inactive); in test [7], 4.63 µM (inactive); in test [20], 7.73 µM (inactive); in test [8], 12.8 µM (inactive). For the same molecule, the GI50 was 17 µM (inactive) in test [9]; 7.46 µM (inactive) in test [11]; 14.9 µM (inactive) in test [12]; 4.37 µM (inactive) in test [13]; 12 µM (inactive) in [14]; 11 µM (inactive) in [15]. For the same molecule, in test [16], the GI50 was 0.286 µM (active).

As to `Nc1ccc2c(c1)NCCN2`, the GI50 is 17.4 µM (inactive) in test [1]; > 100 µM (inactive) in test [2]; 56.5 µM (inactive) in test [3]; > 100 µM (inactive) in test [4]; 64.1 µM (inactive) in test [5]; 25.7 µM (inactive) in test [18]. Also, the GI50 in test [6] was 48.8 µM (inactive); in test [17], 1.69 µM (inactive); in test [19], 4.53 µM (inactive); in test [7], 78.9 µM (inactive); in test [20], 82 µM (inactive); in test [8] it was 82 µM (inactive). Besides, the GI50 is > 100 µM (inactive) in test [9]; 73.1 µM (inactive) in [11]; 6.53 µM (inactive) in [12]; > 100 µM (inactive) in test [13]; 7.8 µM (inactive) in [14]; 14.7 µM (inactive) in test [15]. In [16], the GI50 was > 100 µM (inactive).

Turning to `CC12CCCCC1=C(F)C(F)(F)S2` (configuration not stated), the GI50 in test [1] was 15 µM (inactive); in test [2], > 70.6 µM (inactive); in test [3] it was > 66.4 µM (inactive); in test [4], > 67.1 µM (inactive); in [5], 41.9 µM (inactive); in [18], > 89.1 µM (inactive). Moreover, the GI50 in [6] is > 57.7 µM (inactive); in test [17] it was 15 µM (inactive); in [19], 34.4 µM (inactive); in test [7], 52.1 µM (inactive); in test [20] it was 43.3 µM (inactive); in [8], 20.1 µM (inactive). The GI50 in test [9] is 28 µM (inactive); in test [11], 37.6 µM (inactive); in test [12], 22.1 µM (inactive); in [13] it was > 84.7 µM (inactive); in [14], > 100 µM (inactive); in test [15], > 70.6 µM (inactive). The GI50 in test [16] is 19.7 µM (inactive).

Broadly, the GI50 is the concentration that inhibits growth by half.
